Where two headings read alike, the source gives them in different places.

This assay deals with HT-22 cells. As to the kind of experiment: Protective effect on HT-22 cell damage caused by L-glutamate monosodium salt. Conditions: 15 mM L-glutamate; for viability at 0.078 µM / viability at 0.156 µM / viability at 0.625 µM / viability at 1.25 µM / viability at 5 µM / viability at 10 µM / viability at 2.5 µM / viability at 0.313 µM: Mus musculus, 24 hours; for protection of HT22 cells against L-glutamate monosodium salt damage, in words: comparison with positive control drug DMF. The format is cell-based, mouse. Here is the method: (§1) Well-proliferated HT-22 cells, derived from mouse hippocampal neuronal cells in logarithmic growth phase, were selected, and they were counted after being subjected to trypsin digestion and dispersion. The cell density was adjusted with DMEM/F12 medium (containing 10% FBS and 1% double antibody). The cells were then inoculated in a 96-well plate at a density of 2,000 cells per well, and cultured in a cell incubator at 37° C. in atmosphere containing 5% CO2 for 24 hours. For the control group and the L-glutamate monosodium salt group (model group), serum-free DMEM/F12 medium was added, and the other wells were added with tested compounds of different concentrations; except that the serum-free DMEM/F12 medium was added to the control group. L-glutamate monosodium salt solution at the final concentration of 15 mM was added to the remaining wells. After 24 hours, the cell viability was detected with a luminescent cell viability assay kit.
as §1, with “group,” for “group.”
as §1, with “2.000” for “2,000”, “group,” for “group.”

Where [1] appears, read: HT-22, 24 h, Table 1, Conc 0.078 μm, L-Glu alone 27.73 (I-5 32.92), read-out: cell viability.
Where [2] appears, read: HT-22, 24 h, Table 1, Conc 0.156 μm, L-Glu alone 27.73 (I-5 32.92), read-out: cell viability.
Where [3] appears, read: HT-22, 24 h, Table 1, Conc 0.625 μm, L-Glu alone 27.73 (I-5 32.92), read-out: cell viability.
Where [4] appears, read: HT-22, 24 h, Table 1, Conc 1.25 μm, L-Glu alone 27.73 (I-5 32.92), read-out: cell viability.
The mark [5] stands for this setting: HT-22, 24 h, Table 1, Conc 5 μm, L-Glu alone 27.73 (I-5 32.92), read-out: cell viability.
[6] abbreviates: HT-22, 24 h, Table 1, Conc 10 μm, L-Glu alone 27.73 (I-5 32.92), read-out: cell viability.
Where [7] appears, read: HT-22, 24 h, Table 1, Conc 2.5 μm, L-Glu alone 27.73 (I-5 32.92), read-out: cell viability.
Setting [8] is: HT-22, 24 h, Table 1, Conc 0.313 μm, L-Glu alone 27.73 (I-5 32.92), read-out: cell viability.
[9] abbreviates: HT-22, Table 2, Conc 2.5 μM, L-Glu alone 27.83, read-out: Visibility %.
Setting [10] is: HT-22, Table 2, Conc 10 μM, L-Glu alone 27.83, read-out: Visibility %.
Where [11] appears, read: HT-22, Table 2, Conc 0.078 μM, L-Glu alone 27.83, read-out: Visibility %.
Setting [12] is: HT-22, Table 2, Conc 0.625 μM, L-Glu alone 27.83, read-out: Visibility %.
[13] abbreviates: HT-22, Table 2, Conc 0.156 μM, L-Glu alone 27.83, read-out: Visibility %.
The mark [14] stands for this setting: HT-22, Table 2, Conc 5 μM, L-Glu alone 27.83, read-out: Visibility %.
The mark [15] stands for this setting: HT-22, Table 2, Conc 0.313 μM, L-Glu alone 27.83, read-out: Visibility %.
Where [16] appears, read: HT-22, Table 2, Conc 1.25 μM, L-Glu alone 27.83, read-out: Visibility %.

As to `COC(=O)/C=C/c1ccccn1` [Compound I-1], the viability at 0.078 µM under setting [1] stood at 38.7%. Besides, the viability at 0.156 µM under setting [2] came out at 45.7%. Further, the viability at 0.625 µM under setting [3] was 47.9%. For the same compound, the viability at 1.25 µM under setting [4] was found to be 43.5%. Further, the viability at 5 µM under setting [5] was 38.4%. For the same compound, under setting [6], the viability at 10 µM is 33.4%.
Take `COC(=O)/C=C/c1cccnc1` [Compound I-3]: under setting [1], the viability at 0.078 µM was 46.8%. The viability at 0.156 µM under setting [2] was 50.6%. Further, under setting [3], the viability at 0.625 µM turned out to be 46.8%. In addition, the viability at 1.25 µM under setting [4] is 45.2%. Besides, the viability at 2.5 µM under setting [7] worked out at 47.5%. Under setting [5], the viability at 5 µM amounted to 37.3%. Moreover, the viability at 10 µM under setting [6] was 31.2%.
As for `COC(=O)/C=C/c1ccncc1` [Compound I-4], the viability at 0.078 µM under setting [1] is 45.1%. The viability at 0.156 µM under setting [2] was found to be 44.1%. For the same compound, the viability at 0.313 µM under setting [8] worked out at 42.7%. For the same compound, under setting [3], the viability at 0.625 µM came out at 42.3%. Besides, under setting [4], the viability at 1.25 µM was found to be 41.3%. Further, under setting [7], the viability at 2.5 µM came out at 40.5%. The viability at 5 µM under setting [5] worked out at 40.2%. Further, the viability at 10 µM under setting [6] is 37.6%.
In the case of `N#C/C=C/c1cccnc1` [Compound I-6], the viability at 0.078 µM under setting [1] came to 40.1%. The viability at 0.156 µM under setting [2] worked out at 43.3%. Besides, the viability at 0.313 µM under setting [8] amounted to 42.9%. Moreover, under setting [4], the viability at 1.25 µM is 40.9%. Moreover, under setting [7], the viability at 2.5 µM came to 43%. In addition, the viability at 5 µM under setting [5] turned out to be 40.1%. For the same compound, under setting [6], the viability at 10 µM is 42.6%.
`N#C/C=C/c1ccncc1` [Compound I-7]: the viability at 0.078 µM under setting [1] is 48.8%. In addition, the viability at 0.156 µM under setting [2] was determined as 48%. Besides, under setting [8], the viability at 0.313 µM came out at 42.8%. For the same compound, the viability at 0.625 µM under setting [3] came to 40.6%. Besides, the viability at 1.25 µM under setting [4] was found to be 55.5%. In addition, the viability at 5 µM under setting [5] turned out to be 32.2%.
As for `CON(C)C(=O)/C=C/c1ccccn1` [Compound I-8], the “protection of HT22 cells against L-glutamate monosodium salt damage, in words” value (“protection of HT22 cells” for short) is recorded as “better effects than the positive control drug DMF”. Under setting [2], the viability at 0.156 µM amounted to 77.8%. In addition, the viability at 0.313 µM under setting [8] is 70.6%. For the same compound, the viability at 0.625 µM under setting [3] stood at 71.1%. In addition, under setting [4], the viability at 1.25 µM came out at 54.6%. Moreover, under setting [7], the viability at 2.5 µM came out at 54.8%. Further, the viability at 5 µM under setting [5] is 50.9%. Further, the viability at 10 µM under setting [6] came out at 53%.
For `CON(C)C(=O)/C=C/c1cccnc1` [Compound I-9], under setting [1], the viability at 0.078 µM is 35.5%. Besides, the viability at 0.156 µM under setting [2] was determined as 35.8%. Also, the viability at 0.313 µM under setting [8] was found to be 40.8%. Further, the viability at 0.625 µM under setting [3] was 45.8%. Also, the viability at 1.25 µM under setting [4] amounted to 41.6%. Besides, the viability at 2.5 µM under setting [7] worked out at 40.1%. Moreover, under setting [5], the viability at 5 µM was found to be 43.4%. The viability at 10 µM under setting [6] came to 40.1%.
With `CON(C)C(=O)/C=C/c1ccncc1` [Compound I-10], the viability at 0.078 µM under setting [1] is 44.7%. Also, the viability at 0.156 µM under setting [2] came out at 43%. The viability at 0.313 µM under setting [8] came out at 43.7%. In addition, the viability at 0.625 µM under setting [3] came out at 43.3%. For the same compound, the viability at 1.25 µM under setting [4] stood at 41.9%. Also, the viability at 2.5 µM under setting [7] amounted to 47.8%. For the same compound, under setting [5], the viability at 5 µM was found to be 43.4%. For the same compound, under setting [6], the viability at 10 µM was 37.5%.
Turning to `CN(C)C(=O)/C=C/c1ccccn1` [Compound I-11], the viability at 0.078 µM under setting [1] came out at 42.4%. In addition, the viability at 0.156 µM under setting [2] amounted to 42.2%. In addition, the viability at 0.313 µM under setting [8] was 46.1%. Further, the viability at 0.625 µM under setting [3] is 44.2%. The viability at 1.25 µM under setting [4] was 43.6%. For the same compound, the viability at 2.5 µM under setting [7] is 46.5%. Also, under setting [5], the viability at 5 µM stood at 35.4%. For the same compound, the viability at 10 µM under setting [6] came out at 40.3%.
Consider `CN(C)C(=O)/C=C/c1cccnc1` [Compound I-12], for which, under setting [1], the viability at 0.078 µM turned out to be 48.9%. Also, under setting [8], the viability at 0.313 µM is 50.8%. Also, the viability at 0.625 µM under setting [3] was found to be 49.5%. Under setting [4], the viability at 1.25 µM was 45.6%. For the same compound, the viability at 2.5 µM under setting [7] worked out at 44.2%. In addition, under setting [5], the viability at 5 µM was found to be 39.3%. Further, the viability at 10 µM under setting [6] was 44.3%.
As to `CN(C)C(=O)/C=C/c1ccncc1` [Compound I-13], the “protection of HT22 cells” value is reported as “better effects than the positive control drug DMF”. Further, the viability at 0.078 µM under setting [1] was 52.4%. Moreover, under setting [2], the viability at 0.156 µM was 58.8%. Besides, the viability at 0.625 µM under setting [3] is 64.9%. Further, the viability at 1.25 µM under setting [4] came out at 61.6%. The viability at 2.5 µM under setting [7] stood at 59.7%. In addition, under setting [5], the viability at 5 µM was 51.5%. For the same compound, the viability at 10 µM under setting [6] came out at 51.6%.
With `COC(=O)NC(=O)/C=C/c1ccccn1` [Compound I-15], the viability at 2.5 µM under setting [9] was 43.1%. For the same compound, under setting [10], the viability at 10 µM is 34.1%.
`COC(=O)NC(=O)/C=C/c1cccnc1` [Compound I-16]: the viability at 0.078 µM under setting [11] worked out at 41.3%. The viability at 0.625 µM under setting [12] stood at 34.2%. The viability at 2.5 µM under setting [9] was determined as 40.4%.
On to `COC(=O)NC(=O)/C=C/c1ccncc1` [Compound I-17], for which the viability at 0.156 µM under setting [13] is 48.3%. Under setting [12], the viability at 0.625 µM stood at 51.2%. The viability at 5 µM under setting [14] is 33.6%. Besides, the viability at 10 µM under setting [10] came to 31.2%.
Turning to `COC(=O)/C=C/c1ncccn1` [Compound I-18], the viability at 5 µM under setting [14] turned out to be 40.9%.
As to `CN(C)C(=O)/C=C/c1ncccn1` [Compound I-19], the viability at 0.078 µM under setting [11] worked out at 47.1%. Besides, the viability at 0.156 µM under setting [13] was determined as 39.2%. For the same compound, the viability at 0.313 µM under setting [15] stood at 37.5%.
Regarding `CN(C)C(=O)/C=C/c1ccncn1` [Compound I-20], the viability at 0.156 µM under setting [13] turned out to be 43.4%. The viability at 2.5 µM under setting [9] turned out to be 57.1%. Moreover, the viability at 10 µM under setting [10] is 51.2%.
Take `CON(C)C(=O)/C=C/c1ccncn1` [Compound I-21]: under setting [9], the viability at 2.5 µM came out at 60.3%. The viability at 10 µM under setting [10] stood at 58.4%.
As for `COC(=O)/C=C/c1ncc[nH]1` [Compound I-22], under setting [16], the viability at 1.25 µM is 40%. Besides, under setting [9], the viability at 2.5 µM came to 42.7%.
`COC(=O)/C=C/c1nccn1C` [Compound I-23]: the “protection of HT22 cells” value is “equivalent to that of a positive control drug DMF”. Further, the viability at 0.078 µM under setting [11] turned out to be 65.4%. In addition, the viability at 0.313 µM under setting [15] came out at 38.3%. Moreover, under setting [16], the viability at 1.25 µM came to 39%.
For the compound `CN(C)C(=O)/C=C/c1nccn1C` [Compound I-24], the viability at 0.156 µM under setting [13] was determined as 39.6%. Further, the viability at 0.313 µM under setting [15] came to 38%. Moreover, the viability at 2.5 µM under setting [9] came to 35.7%.
Take `Cc1coc(/C=C/C#N)n1` [Compound I-26]: the “protection of HT22 cells” value is given as “perform far better than the positive control drug DMF”.
As to `COC(=O)/C=C/c1ncco1` [Compound I-27], the “protection of HT22 cells” value is reported as “perform better than the positive control drug DMF”.
The same measure, in the same setting: as for `COC(=O)/C=C/c1nc(C)cs1` [Compound I-28], the entry is “perform far better than the positive control drug DMF”.

The record behind these values is patent publication US20230285372A1, “Pharmaceutical use of (E)-3-arylheterocyclylprop-2-enoic acid derivatives” (MEDCURIUS INC., priority 2020, published 2023).
